Source: patent US20070066608A1, “Novel indole derivatives with an improved antipsychotic activity” (priority 2003, published 2007)

Legend:
[1] = target: T1, Human Dopamine D2L receptor (Homo sapiens, UniProt P14416); experiment: Radioligand binding experiment for dopamine D2 receptor (hD2), [3H]Spiperone; conditions: membranes of D2L receptor-transfected CHO cells, read-out: pIC50 D2 (converted)
T1 construct: expressed in transfected cells; host or cells: CHO cells
Description: (§1) The interaction of the compounds of Formula (I) with dopamine-receptors, h5HT-transporter and h5HT1A receptor was assessed in in vitro radioligand binding experiments. In general, a low concentration of a radioligand with a high binding affinity for a particular receptor or transporter is incubated with a sample of a tissue preparation enriched in a particular receptor or transporter or with a preparation of cells expressing cloned human receptors in a buffered medium. During the incubation, the radioligand binds to the receptor or transporter. When equilibrium of binding is reached, the receptor bound radioactivity is separated from the non-bound radioactivity, and the receptor- or transporter-bound activity is counted The interaction of the test compounds with the receptor is assessed in competition binding experiments. Various concentrations of the test compound are added to the incubation mixture containing the receptor- or transporter preparation and the radioligand. The test compound in proportion to its binding affinity and its concentration inhibits binding of the radioligand.
Human Dopamine D2L receptor-transfected CHO cells were collected by scraping into ice-cold Tris-HCl buffer ([…], pH 7.4). The suspension was centrifuged (23 500×g, 10 min, 4° C.) and pellets stored at −70° C. until require. They were then thawed and briefly homogenised using an Ultra-Turrax T25 homogeniser prior to dilution to an appropriate protein concentration optimised for specific and non-specific binding. [^3H]Spiperone (NEN, specific activity˜70 Ci/mmol) was diluted in Tris-HCl assay buffer containing NaCl, CaCl2, MgCl2, KCI (50, 120, 2, 1, and 5 mM respectively, adjusted to pH 7.7 with HCl) at a concentration of 2 nmol/L. Prepared radioligand (50 μl) was then incubated (30 min, 37° C.) with membrane preparations pre-diluted to an appropriate protein concentration (400 μl), and with 50 μl of either the 10% DMSO control, Butaclamol (10^−6 mol/L final concentration), or compound of interest. Membrane-bound activity was detected by filtration through a Packard Filtermate harvester onto Unifilterplates, washing with ice-old Tris-HCl buffer (50 mM; pH8.0; 3×4 ml). Filters were allowed to dry before adding scintillation fluid and counting in a Topcount scintillation counter. % Specific bound and competition binding curves were calculated using S-Plus software (Insightful).

[2] = target: T2, Human Dopamine D4 receptor (Homo sapiens, UniProt P21917); experiment: Radioligand binding experiment for dopamine D4 receptor (hD4), [125I]Spiperone; conditions: membranes of D4 receptor-transfected Sf9 cells, read-out: pIC50 D4 (converted)
T2 construct: expressed in transfected cells; host or cells: Sf9 cells
T2 sequence (P21917 1-419): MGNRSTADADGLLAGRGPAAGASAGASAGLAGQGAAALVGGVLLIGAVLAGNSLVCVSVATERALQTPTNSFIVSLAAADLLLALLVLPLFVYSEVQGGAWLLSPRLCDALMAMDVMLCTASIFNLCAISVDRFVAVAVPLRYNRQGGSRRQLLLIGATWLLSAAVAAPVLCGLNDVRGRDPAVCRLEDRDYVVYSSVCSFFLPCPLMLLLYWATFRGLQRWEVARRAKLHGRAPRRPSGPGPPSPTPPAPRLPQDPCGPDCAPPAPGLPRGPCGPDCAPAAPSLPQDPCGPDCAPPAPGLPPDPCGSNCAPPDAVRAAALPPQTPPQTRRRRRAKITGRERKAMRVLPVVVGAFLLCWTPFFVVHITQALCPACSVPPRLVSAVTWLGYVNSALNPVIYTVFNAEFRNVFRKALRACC
Description: as §1, with “The test compound in proportion to its binding affinity and its concentration inhibits binding of the radioligand.” left out
Human Dopamine D4 receptor-transfected Sf9 cells were collected by scraping into ice-cold Tris-HCl buffer (50 mM, pH 7.4). […] Filters were allowed to dry before adding scintillation fluid and counting in a Topcount scintillation counter. % Specific bound and competition binding curves were calculated using S-Plus software (Insightful).

[3] = target: T3, human 5HT transporter (Homo sapiens, UniProt P31645); experiment: Binding experiment for 5-HT transporter, [3H]Paroxetine; conditions: 5HT transporter-transfected HEK cells, [3H]Paroxetine binding; read-out: pIC50 5HT reuptake inhibition (converted)
T3 construct: host or cells: HEK cells
T3 sequence (P31645 whole entry): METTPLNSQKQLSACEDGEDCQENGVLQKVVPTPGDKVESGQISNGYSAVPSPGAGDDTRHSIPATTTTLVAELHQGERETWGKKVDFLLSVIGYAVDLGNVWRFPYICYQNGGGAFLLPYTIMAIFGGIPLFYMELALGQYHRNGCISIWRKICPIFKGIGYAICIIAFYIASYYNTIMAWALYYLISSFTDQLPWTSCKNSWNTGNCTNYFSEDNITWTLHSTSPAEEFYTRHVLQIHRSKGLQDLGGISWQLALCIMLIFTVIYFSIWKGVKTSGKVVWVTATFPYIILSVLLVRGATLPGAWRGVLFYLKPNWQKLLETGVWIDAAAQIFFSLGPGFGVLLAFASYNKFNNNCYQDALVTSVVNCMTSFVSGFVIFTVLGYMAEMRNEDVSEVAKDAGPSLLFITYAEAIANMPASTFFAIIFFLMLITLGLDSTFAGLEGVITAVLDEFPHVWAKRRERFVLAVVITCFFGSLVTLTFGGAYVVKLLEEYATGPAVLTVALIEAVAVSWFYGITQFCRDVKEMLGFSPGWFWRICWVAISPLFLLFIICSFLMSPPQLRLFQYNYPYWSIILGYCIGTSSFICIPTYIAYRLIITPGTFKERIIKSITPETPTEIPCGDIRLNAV
Description: as §1
Frozen human 5HT transporter-transfected HEK cells (Perkin Elmer, Brussels) were thawed and briefly homogenised using an Ultra-Turrax T25 homogeniser prior to dilution to an appropriate protein concentration optimised for specific and non-specific binding. [^3H]Paroxetine (NEN, specific activity 20 Ci/mmol) was diluted in Tris-HCl assay buffer containing NaCl and KCl (50 mM 120 mM and 5 mM, respectively; pH 7.4) at a concentration of 5 nmol/L. Prepared radioligand (25 μl) was then incubated (60 min, 25° C.) with membrane preparations (200 μl) and with 25 μl of either 10% DMSO control, Imipramine (10^−6 mol/L final concentration), or compound of interest Membrane-bound activity was detected by filtration through a Packard Filtermate harvester onto Unifilterplates pre-soaked in 0.1% PEI, washing with ice-cold assay buffer (3×4 ml). Filters were dried prior to addition of scintillation fluid and then counting in a Topcount scintillation counter. % Specific bound and competition binding curves were calculated using S-Plus software (Insightful).

[4] = target: T4, Human 5HT1A receptor (Homo sapiens, UniProt P08908); experiment: Binding experiment for 5-HT1A receptor, [3H]8OHDPAT; conditions: membranes of 5HT1A receptor-transfected L929 cells, read-out: pIC50 5HT1A (converted)
T4 construct: expressed in transfected cells; host or cells: L929 cells (stably transfected)
T4 sequence (P08908 1-422): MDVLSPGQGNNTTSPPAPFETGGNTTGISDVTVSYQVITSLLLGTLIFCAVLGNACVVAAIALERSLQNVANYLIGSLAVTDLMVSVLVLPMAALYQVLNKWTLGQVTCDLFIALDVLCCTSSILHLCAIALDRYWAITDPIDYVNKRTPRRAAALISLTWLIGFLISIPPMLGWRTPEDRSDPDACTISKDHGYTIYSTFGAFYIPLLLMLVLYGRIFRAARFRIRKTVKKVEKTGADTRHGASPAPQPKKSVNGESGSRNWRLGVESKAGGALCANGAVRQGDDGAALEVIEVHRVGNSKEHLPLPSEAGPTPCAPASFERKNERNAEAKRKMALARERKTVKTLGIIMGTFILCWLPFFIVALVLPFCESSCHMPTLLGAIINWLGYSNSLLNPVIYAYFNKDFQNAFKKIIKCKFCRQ
Description: as §1
Human 5HT1A receptor-transfected L929 cells were collected by scraping into ice-cold Tris-HCl buffer (50 mM, pH 7.4). The suspension was centrifuged (23 500×g, 10 min, 4° C.) and pellets stored at −70° C. until required. They were then thawed and briefly homogenised using an Ultra-Turrax T25 homogeniser prior to dilution to an appropriate protein concentration optimised for specific and non-specific binding. [^3H]8OHDPAT (NEN, specific activity 127 Ci/mmol) was diluted in Tris-HCl assay buffer containing CaCl2 (50 mM and 4 mM, respectively; pH 7.7) at a concentration of 5 nmol/L. Prepared radioligand (50 μl) was then incubated (30 min, 37° C.) with membrane preparations from L929 cells stably-transfected with the h5HT1A gene construct (400 μl) and with 50 μl of either the 10% DMSO control, spiroxatrine (10^−6 mol/L final concentration), or compound of interest. Membrane-bound activity was detected by filtration through a Packard Filtermate harvester onto Unifaltemplates, washing with ice-cold Tris-HCI buffer (3×4 ml), followed by drying. Scintillation fluid was added and membranes were counted in a Topcount scintillation counter. % Specific bound and competition binding curves were calculated using S-Plus software (Insightful).

T1 sequence (P14416 whole entry): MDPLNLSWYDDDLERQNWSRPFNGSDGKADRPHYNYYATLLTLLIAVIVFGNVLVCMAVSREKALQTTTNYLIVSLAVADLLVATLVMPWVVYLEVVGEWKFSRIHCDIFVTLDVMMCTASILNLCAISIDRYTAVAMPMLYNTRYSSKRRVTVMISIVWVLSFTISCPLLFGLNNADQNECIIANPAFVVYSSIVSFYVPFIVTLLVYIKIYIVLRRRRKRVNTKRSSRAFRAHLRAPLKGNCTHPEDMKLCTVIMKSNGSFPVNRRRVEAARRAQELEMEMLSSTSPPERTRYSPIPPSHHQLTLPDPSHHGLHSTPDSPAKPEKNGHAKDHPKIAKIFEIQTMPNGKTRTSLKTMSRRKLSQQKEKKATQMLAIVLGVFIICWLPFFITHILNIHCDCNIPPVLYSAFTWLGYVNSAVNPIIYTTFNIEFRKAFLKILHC

## Fc1ccc2[nH]cc(C3=CCN(CC4COc5ccncc5O4)CC3)c2c1 (stereo not shown) [Compound 4]
[1]
  IC50: 158 nM
[2]
  IC50: 50.1 nM
[3]
  IC50: 50.1 nM
[4]
  IC50: 126 nM
